Test results taken from ChEMBL document CHEMBL4265875, “A comprehensive review on Aurora kinase: Small molecule inhibitors and clinical trial studies” (Eur J Med Chem, 2017).
Each block holds one compound with its values, some of them ahead of it.

Key:
A2780 = test: Growth inhibition of human A2780 cells incubated for 72 hrs by MTT assay; type: functional; settings: A2780, 72 h
SW-620 = test: Growth inhibition of human SW620 cells incubated for 72 hrs by MTT assay; type: functional; settings: SW-620, 72 h
[1] = Inhibition of CYP450 (unknown origin); type: ADME, Homo sapiens
[2] = Growth inhibition of in human QGP1 cells incubated for 72 hrs; type: functional, cell-based; settings: QGP-1, 72 h
[3] = Growth inhibition of in human BON1 cells incubated for 72 hrs; type: functional, cell-based
[4] = Growth inhibition of in human MIP101 cells incubated for 72 hrs; type: functional, cell-based
Aurora kinase A [5] = target: T1, Aurora kinase A (Homo sapiens, UniProt O14965); test: Inhibition of Aurora A kinase (unknown origin)
Aurora kinase A [6] = target: T1, Aurora kinase A; test: Inhibition of recombinant aurora 2 (unknown origin) expressed in Sf21 insect cells incubated for 60 mins using [biotin LRRWSLGLRRWSLGLRRWSLGLRRWSLG substrate and [gamma33P]ATP by beta plate counting method
Aurora kinase B = Aurora kinase B (Homo sapiens, UniProt Q96GD4); test: Inhibition of recombinant aurora B (unknown origin)
HCT-116 [7] = test: Growth inhibition of human HCT116 cells by XTT assay; type: functional, cell-based
KCL-22 = test: Induction of apoptosis in human KCL22 cells by Annexin V staining based assay; type: functional, cell-based
HT-29 = test: Growth inhibition of human HT-29 cells by XTT assay; type: functional, cell-based
HeLa = test: Growth inhibition of human HeLa cells by XTT assay; type: functional, cell-based
[8] = target: Aurora kinase B/Inner centromere protein (Homo sapiens) (UniProt Q96GD4+Q9NQS7)
Description: Inhibition of human Aurora B/INCENP assessed as dissociation half life pre-incubated for 30 mins before 5-FAM-PKAtide substrate addition and measured after 120 mins

HL-60 = test: Antitumor activity against human HL60 cells xenografted in nude mouse assessed as reduction in tumor size at 75 mg/kg, ip bid for 13 days; type: functional, organism-based; design: scale not given: the % may be the effect or the level left
HCT-116 [9] = test: Antitumor activity against human HCT116 cells xenografted in nude mouse assessed as reduction in tumor size at 2 mg/kg/hr; type: functional, organism-based; design: scale not given: the % may be the effect or the level left
[10] = Suppression of cell mitosis in human multiple myeloma cells; type: functional
MM1.S [11] = test: Antitumor activity against human MM1S cells xenografted in gamma-irradiated CB17 SCID mouse assessed as inhibition of tumor growth at 15 mg/kg, po dosed daily for 21 days; type: functional; settings: light or radiation study, 504 h, read-out: TGI
MM1.S [12] = test: Antitumor activity against human MM1S cells xenografted in gamma-irradiated CB17 SCID mouse assessed as inhibition of tumor growth at 30 mg/kg, po dosed daily for 21 days; type: functional; settings: light or radiation study, 504 h, read-out: TGI
Aurora kinase C = Aurora kinase C (Homo sapiens, UniProt Q9UQB9); test: Inhibition of Aurora C kinase (unknown origin)
[13] = Oral bioavailability in fasted mouse at 5 mg/kg administered as single dose by orogastric gavage by LC-MS/MS analysis; type: ADME, organism-based; settings: in vivo
[14] = Half life in fasted mouse at 5 mg/kg administered as single dose by orogastric gavage by LC-MS/MS analysis; type: ADME, organism-based; settings: in vivo, po
[15] = Oral bioavailability in fasted rat at 5 mg/kg administered as single dose by orogastric gavage by LC-MS/MS analysis; type: ADME, organism-based; settings: in vivo
[16] = Half life in fasted rat at 5 mg/kg administered as single dose by orogastric gavage by LC-MS/MS analysis; type: ADME, organism-based; settings: in vivo, po
[17] = Oral bioavailability in fasted dog at 2 mg/kg administered as single dose by orogastric gavage by LC-MS/MS analysis; type: ADME, organism-based, Canis lupus familiaris; settings: in vivo
[18] = Half life in fasted dog at 2 mg/kg administered as single dose by orogastric gavage by LC-MS/MS analysis; type: ADME, organism-based, Canis lupus familiaris; settings: in vivo, po
[19] = Oral bioavailability in fasted monkey at 2 mg/kg administered as single dose by orogastric gavage by LC-MS/MS analysis; type: ADME, organism-based, Macaca mulatta; settings: rhesus monkey, in vivo
[20] = Half life in fasted monkey at 2 mg/kg administered as single dose by orogastric gavage by LC-MS/MS analysis; type: ADME, organism-based, Macaca mulatta; settings: rhesus monkey, in vivo, po

T1 sequence (O14965 whole entry): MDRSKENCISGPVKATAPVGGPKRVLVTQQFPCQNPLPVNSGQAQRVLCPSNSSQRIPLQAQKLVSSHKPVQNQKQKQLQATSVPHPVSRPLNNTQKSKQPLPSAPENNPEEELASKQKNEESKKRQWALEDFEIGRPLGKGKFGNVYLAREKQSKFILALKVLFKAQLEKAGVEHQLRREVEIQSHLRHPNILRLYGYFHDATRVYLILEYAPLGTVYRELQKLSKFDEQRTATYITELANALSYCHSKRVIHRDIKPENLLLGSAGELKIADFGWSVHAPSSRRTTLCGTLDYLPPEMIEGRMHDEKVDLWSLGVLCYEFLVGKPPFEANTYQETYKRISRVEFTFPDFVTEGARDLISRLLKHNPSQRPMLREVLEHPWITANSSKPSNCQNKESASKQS
Sequence of Aurora kinase B (Q96GD4 whole entry): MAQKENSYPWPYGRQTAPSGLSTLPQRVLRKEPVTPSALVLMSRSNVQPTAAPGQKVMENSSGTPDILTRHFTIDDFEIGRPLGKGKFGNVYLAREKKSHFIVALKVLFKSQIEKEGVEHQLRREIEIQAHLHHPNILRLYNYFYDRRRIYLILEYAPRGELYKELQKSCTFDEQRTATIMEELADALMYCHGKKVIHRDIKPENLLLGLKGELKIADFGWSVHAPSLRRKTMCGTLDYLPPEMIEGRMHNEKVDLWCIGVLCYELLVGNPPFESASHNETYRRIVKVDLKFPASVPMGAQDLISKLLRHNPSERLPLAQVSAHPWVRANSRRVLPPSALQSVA
Sequence of Aurora kinase C (Q9UQB9 whole entry): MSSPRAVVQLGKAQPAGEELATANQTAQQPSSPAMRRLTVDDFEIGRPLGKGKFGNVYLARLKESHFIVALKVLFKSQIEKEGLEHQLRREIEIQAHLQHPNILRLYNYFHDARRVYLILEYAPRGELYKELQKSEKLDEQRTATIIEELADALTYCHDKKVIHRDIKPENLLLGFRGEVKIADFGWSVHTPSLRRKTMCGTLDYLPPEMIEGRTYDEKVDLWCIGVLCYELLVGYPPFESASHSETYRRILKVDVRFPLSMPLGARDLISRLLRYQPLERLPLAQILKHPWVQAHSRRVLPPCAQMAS

SMILES: COc1cc2c(Nc3ccc(NC(=O)c4ccccc4)cc3)ncnc2cc1OCCCN1CCOCC1
- IC50 [2]: 900 nM
- IC50 [3]: 3000 nM
- IC50 [4]: 3000 nM

SMILES: CCN1CCN(C(=O)Cc2ccc(Nc3ncc(F)c(Nc4ccc(C(=O)Nc5ccccc5Cl)cc4)n3)cc2)CC1
- IC50 (HCT-116 [7]): 190 to 378 nM
- IC50 (KCL-22): 5 µM
- IC50 (HT-29): 5.6 µM
- IC50 (HeLa): 416 nM

SMILES: Cc1cc(Nc2cc(N3CCN(C)CC3)nc(Sc3ccc(NC(=O)C4CC4)cc3)n2)n[nH]1
- Activity (HL-60): 98%
- Activity (HCT-116 [9]): 56%

SMILES: COc1cc(Nc2ncc3c(n2)-c2ccc(Cl)cc2C(c2c(F)cccc2OC)=NC3)ccc1C(=O)O [ALISERTIB]
- IC50 [10]: 3 to 1710 nM
- inhibition in vivo at 15 mg/kg (MM1.S [11]): 42%
- inhibition in vivo at 30 mg/kg (MM1.S [12]): 80%

Results, then the compound that gave them:

- GI50 (A2780): 300 nM
- GI50 (SW-620): 140 nM
- IC50 [1]: > 10 µM
SMILES: Cc1cc(CN2CCN(c3c(Br)cnc4nc(-c5ccc(N6CCN(C)CC6)cc5)[nH]c34)CC2)no1

- IC50 (Aurora kinase A [5]): 560 nM
SMILES: O=C1c2[nH]c3cc(-c4ccco4)nn3c(=O)c2CN1Cc1ccccc1

- IC50 (Aurora kinase A [6]): 60 nM
- IC50 (Aurora kinase B): 41 nM
SMILES: COc1cc2c(Nc3ccc(C(=O)Nc4ccccc4)cc3)ncnc2cc1O

- T1/2 [8]: 8 h
SMILES: CCn1cc(-c2ccnc3[nH]c(-c4cccc(CN(C)C)c4)cc23)c(-c2ccc(NC(=O)N(C)C)cc2)n1

- IC50 (Aurora kinase C): 1 nM
- IC50 (Aurora kinase B): 4 nM
- bioavailability [13]: 31 to 107%
- half-life [14]: 36 to 144 min
- bioavailability [15]: 31 to 107%
- half-life [16]: 36 to 144 min
- bioavailability [17]: 31 to 107%
- half-life [18]: 36 to 144 min
- bioavailability [19]: 31 to 107%
- half-life [20]: 36 to 144 min
SMILES: Cc1csc(-c2nnc(Nc3ccc(Oc4ncccc4-c4ccnc(N)n4)cc3)c3ccccc23)c1 [AMG-900]
